For one series, the target named is Cytochrome P450 2C19 (Homo sapiens, UniProt P33261). Kind of series: Inhibition of human CYP2C19 by fluorescence plate reader analysis. The class given is ADME.
Series [1] is described as follows: Ratio of apparent permeability across apical to basolateral side in the presence of P-gp inhibitor elacridar to the absence of P-gp inhibitor elacridar in dog MDCK-MDR1 cells at 5 uM incubated for 120 mins. The following applies: 2 h. It is filed as ADME, cell-based, Canis lupus familiaris.
A short description of series [2]: Dissociation constant, pKa of the compound by fast UV-spectrometric titration analysis. The class given is physicochemical.
Series [3] is described as follows: Free drug concentration in rat brain measured after 5 hrs by HPLC-MS/MS method. The class given is ADME, tissue-based.
A short description of series [4]: Half life in Beagle dog at 2.5 mg/kg, po. The class given is ADME, organism-based, Canis lupus familiaris. As to conditions: in vivo.
In the next series the target is T1, Cytochrome P450 1A2 (Homo sapiens, UniProt P05177).
T1 sequence (P05177 whole entry): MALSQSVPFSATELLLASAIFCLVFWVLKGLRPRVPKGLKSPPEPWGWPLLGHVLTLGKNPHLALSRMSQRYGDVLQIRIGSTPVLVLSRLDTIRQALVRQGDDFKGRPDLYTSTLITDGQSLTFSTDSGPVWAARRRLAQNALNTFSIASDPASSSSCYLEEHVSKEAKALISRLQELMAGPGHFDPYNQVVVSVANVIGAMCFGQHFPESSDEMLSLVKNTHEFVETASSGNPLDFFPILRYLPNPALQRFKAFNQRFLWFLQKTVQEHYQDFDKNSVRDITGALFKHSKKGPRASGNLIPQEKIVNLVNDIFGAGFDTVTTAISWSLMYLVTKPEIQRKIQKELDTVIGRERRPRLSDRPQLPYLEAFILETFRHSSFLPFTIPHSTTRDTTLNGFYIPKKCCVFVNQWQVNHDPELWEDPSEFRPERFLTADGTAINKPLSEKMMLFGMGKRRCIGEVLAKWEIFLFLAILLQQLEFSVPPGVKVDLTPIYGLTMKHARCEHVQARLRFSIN
Briefly: Inhibition of human CYP1A2 by fluorescence plate reader analysis. It is filed as ADME.

The nature of series [5]: Metabolic stability in human liver microsomes assessed as metabolite formation after 15 mins in presence of NADPH by LC-MS analysis. The following applies: 0.25 h. The class given is ADME, Microsome. A general note: Microsomes from liver hold many membrane-bound enzymes, among them those of drug oxidation.
For a further series, the target named is Cytochrome P450 2C9 (Homo sapiens, UniProt P11712). Briefly: Inhibition of human CYP2C9 by fluorescence plate reader analysis. The class given is ADME.
Sequence of Cytochrome P450 2C9 (P11712 whole entry): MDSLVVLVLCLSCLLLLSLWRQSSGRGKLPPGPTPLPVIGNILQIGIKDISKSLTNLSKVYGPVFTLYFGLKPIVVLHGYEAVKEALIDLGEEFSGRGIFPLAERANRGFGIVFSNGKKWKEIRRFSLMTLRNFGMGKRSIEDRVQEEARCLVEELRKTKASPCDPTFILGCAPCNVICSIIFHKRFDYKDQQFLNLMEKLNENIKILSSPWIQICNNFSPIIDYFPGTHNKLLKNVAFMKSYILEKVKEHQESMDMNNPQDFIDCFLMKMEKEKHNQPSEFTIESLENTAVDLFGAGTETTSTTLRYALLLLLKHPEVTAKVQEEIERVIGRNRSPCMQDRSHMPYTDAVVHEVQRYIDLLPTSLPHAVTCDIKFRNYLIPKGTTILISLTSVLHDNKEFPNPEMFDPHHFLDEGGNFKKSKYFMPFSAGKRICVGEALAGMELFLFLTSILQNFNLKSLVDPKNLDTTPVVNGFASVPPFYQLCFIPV
Series [6] is described as follows: Total plasma concentration in Beagle dog at 2.5 mg/kg, po. The following applies: in vivo. The class given is ADME, organism-based, Canis lupus familiaris.
In series [7] the target is T2, Cytochrome P450 3A4 (Homo sapiens, UniProt P08684). Kind of series: Inhibition of human CYP3A4 using midazolam as substrate by fluorescence plate reader analysis. The following applies: for inhibition (INH): human. The class given is ADME.
T2 sequence (P08684 whole entry): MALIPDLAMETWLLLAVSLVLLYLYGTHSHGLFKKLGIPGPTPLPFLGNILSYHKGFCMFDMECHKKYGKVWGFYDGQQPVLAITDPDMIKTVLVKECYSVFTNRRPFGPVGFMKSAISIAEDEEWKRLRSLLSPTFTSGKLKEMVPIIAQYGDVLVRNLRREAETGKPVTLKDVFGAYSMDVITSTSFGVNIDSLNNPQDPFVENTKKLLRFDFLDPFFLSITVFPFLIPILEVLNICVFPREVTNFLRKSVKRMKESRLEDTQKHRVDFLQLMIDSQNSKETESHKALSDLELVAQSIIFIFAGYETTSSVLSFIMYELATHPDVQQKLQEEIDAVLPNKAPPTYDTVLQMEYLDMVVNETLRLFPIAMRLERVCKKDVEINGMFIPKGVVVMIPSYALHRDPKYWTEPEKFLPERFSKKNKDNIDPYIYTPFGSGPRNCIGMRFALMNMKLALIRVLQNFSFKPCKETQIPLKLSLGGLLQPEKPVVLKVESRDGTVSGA
A short description of series [8]: Free drug concentration in human plasma measured after 4.5 hrs by HPLC-MS/MS method. It is filed as ADME, cell-free.
The nature of series [9]: Metabolic stability in mouse liver microsomes assessed as metabolite formation after 15 mins in presence of NADPH by LC-MS analysis. It is filed as ADME, Microsome. As to conditions: 0.25 h.
The target in the next series is T3, Cytochrome P450 2C8 (Homo sapiens, UniProt P10632).
T3 sequence (P10632 whole entry): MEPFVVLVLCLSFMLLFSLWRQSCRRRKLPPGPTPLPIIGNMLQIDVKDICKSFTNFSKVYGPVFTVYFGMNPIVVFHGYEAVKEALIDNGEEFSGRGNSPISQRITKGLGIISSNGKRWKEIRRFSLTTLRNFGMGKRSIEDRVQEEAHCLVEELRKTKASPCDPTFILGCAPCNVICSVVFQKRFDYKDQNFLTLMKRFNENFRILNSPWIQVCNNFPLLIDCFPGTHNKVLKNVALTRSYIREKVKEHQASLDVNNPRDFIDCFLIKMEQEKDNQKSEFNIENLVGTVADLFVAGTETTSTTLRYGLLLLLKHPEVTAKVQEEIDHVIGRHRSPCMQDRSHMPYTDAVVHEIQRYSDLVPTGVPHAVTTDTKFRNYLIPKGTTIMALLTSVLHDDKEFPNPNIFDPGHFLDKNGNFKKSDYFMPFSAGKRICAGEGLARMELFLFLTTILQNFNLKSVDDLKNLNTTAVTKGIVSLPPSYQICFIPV
Kind of series: Inhibition of human CYP2C8 by fluorescence plate reader analysis. It is filed as ADME.

Series [10] concerns the target T2, Cytochrome P450 3A4. Kind of series: Inhibition of human CYP3A4 by fluorescence plate reader analysis. The class given is ADME.
Series [11] in a line: In vivo inhibition of BACE1 in Beagle dog assessed as reduction of amyloid beta (1 to 42 residues) levels in CSF administered orally by electrochemiluminescence assay. The class given is functional, organism-based, Canis lupus familiaris. The following applies: Canis lupus familiaris, Beagle.
In series [12] the target is T2, Cytochrome P450 3A4. Kind of series: Time dependent inhibition of human CYP3A4 using testosterone as substrate by fluorescence plate reader analysis. It is filed as ADME.
Series [13] has as its target Voltage-gated inwardly rectifying potassium channel KCNH2 (Homo sapiens, UniProt Q12809). Kind of series: Inhibition of hERG expressed in HEK293 cells at -80 mV holding potential by automated patch-clamp method. The class given is toxicity, cell-based. For orientation: The hERG channel carries a current that helps repolarise heart muscle cells.
For series [14], the target named is T2, Cytochrome P450 3A4. Kind of series: Inhibition of human CYP3A4 using testosterone as substrate by fluorescence plate reader analysis. It is filed as ADME.
A short description of series [15]: Free drug concentration in mouse plasma measured after 4.5 hrs by HPLC-MS/MS method. It is filed as ADME, cell-free.
Series [16] in a line: Free drug concentration in dog plasma measured after 4.5 hrs by HPLC-MS/MS method. The class given is ADME, cell-free, Canis lupus familiaris.
Another series has as its system Canis lupus familiaris. Briefly: In vivo inhibition of BACE1 in Beagle dog assessed as reduction of amyloid beta (1 to 42 residues) levels in CSF at 2.5 mg/kg, po measured after 24 hrs by electrochemiluminescence assay. The class given is functional, organism-based.
Another series addresses Beta-secretase 1 (Homo sapiens, UniProt P56817). Kind of series: Inhibition of BACE1 (1 to 454 residues) (unknown origin) using APP harboring Swedish Lys/Met mutant-derived peptide as substrate by FRET assay.
A further series has as its target hERG (KCNH2) (Homo sapiens, UniProt Q12809). Briefly: Inhibition of hERG expressed in HEK293 cells at 3 uM at -80 mV holding potential by automated patch-clamp method. It is filed as toxicity, cell-based. As to conditions: HEK293 cells expressing hERG.
In a further series the test system is MDR1. Briefly: Efflux ratio of apparent permeability in dog MDCK-MDR1 cells. It is filed as ADME, cell-based, Canis lupus familiaris.

Converted amounts (≈) assume the structure as drawn. The source made the active and inactive calls. No cut-off for these calls is given here.

Sequence of Voltage-gated inwardly rectifying potassium channel KCNH2 (Q12809 whole entry): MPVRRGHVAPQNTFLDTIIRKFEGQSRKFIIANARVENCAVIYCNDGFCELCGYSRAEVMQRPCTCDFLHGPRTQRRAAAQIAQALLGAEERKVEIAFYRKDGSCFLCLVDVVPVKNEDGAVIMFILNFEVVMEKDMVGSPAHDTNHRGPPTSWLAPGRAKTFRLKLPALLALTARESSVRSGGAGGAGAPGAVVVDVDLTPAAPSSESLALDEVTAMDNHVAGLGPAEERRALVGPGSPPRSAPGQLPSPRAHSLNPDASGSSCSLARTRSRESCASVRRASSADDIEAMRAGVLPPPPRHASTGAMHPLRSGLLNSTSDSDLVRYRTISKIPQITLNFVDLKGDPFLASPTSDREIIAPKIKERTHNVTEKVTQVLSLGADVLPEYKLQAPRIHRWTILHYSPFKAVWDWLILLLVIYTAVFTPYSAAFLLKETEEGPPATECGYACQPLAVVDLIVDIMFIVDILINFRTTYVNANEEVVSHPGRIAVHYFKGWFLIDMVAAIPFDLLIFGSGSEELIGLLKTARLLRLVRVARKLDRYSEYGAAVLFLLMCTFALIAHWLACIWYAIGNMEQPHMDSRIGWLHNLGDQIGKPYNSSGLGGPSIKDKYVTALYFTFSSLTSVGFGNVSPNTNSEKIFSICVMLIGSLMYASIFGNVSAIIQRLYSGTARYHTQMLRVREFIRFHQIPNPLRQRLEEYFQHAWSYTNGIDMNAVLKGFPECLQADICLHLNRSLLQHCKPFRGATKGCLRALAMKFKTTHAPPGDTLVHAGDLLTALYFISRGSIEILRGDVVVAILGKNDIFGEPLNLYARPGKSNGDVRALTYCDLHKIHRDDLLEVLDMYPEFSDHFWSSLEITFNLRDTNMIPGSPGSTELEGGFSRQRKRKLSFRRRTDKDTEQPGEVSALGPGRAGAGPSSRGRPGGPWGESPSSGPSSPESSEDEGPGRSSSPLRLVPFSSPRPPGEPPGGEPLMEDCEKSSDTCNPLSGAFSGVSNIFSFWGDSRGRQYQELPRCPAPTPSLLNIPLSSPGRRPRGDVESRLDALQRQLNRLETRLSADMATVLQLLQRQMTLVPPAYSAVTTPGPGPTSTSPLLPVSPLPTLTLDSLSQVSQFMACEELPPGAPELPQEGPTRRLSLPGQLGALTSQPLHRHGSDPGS
Sequence of Beta-secretase 1 (P56817 whole entry, the tested form may be a part): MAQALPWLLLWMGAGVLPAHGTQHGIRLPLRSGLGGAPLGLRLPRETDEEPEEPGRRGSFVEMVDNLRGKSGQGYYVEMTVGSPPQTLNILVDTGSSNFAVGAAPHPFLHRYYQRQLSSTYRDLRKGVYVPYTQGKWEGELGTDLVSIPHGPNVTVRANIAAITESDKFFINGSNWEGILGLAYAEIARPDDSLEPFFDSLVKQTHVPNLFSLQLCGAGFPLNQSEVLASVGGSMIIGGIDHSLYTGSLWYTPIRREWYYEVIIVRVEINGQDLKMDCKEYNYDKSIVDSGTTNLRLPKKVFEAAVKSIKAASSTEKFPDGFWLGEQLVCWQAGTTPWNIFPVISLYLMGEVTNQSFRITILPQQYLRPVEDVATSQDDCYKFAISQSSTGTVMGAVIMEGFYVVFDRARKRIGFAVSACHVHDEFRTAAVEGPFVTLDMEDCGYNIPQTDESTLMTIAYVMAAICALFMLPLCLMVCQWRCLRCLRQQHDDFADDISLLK
Sequence of hERG (KCNH2) (Q12809 whole entry): as the sequence (Q12809 whole entry) above
Sequence of Cytochrome P450 2C19 (P33261 whole entry): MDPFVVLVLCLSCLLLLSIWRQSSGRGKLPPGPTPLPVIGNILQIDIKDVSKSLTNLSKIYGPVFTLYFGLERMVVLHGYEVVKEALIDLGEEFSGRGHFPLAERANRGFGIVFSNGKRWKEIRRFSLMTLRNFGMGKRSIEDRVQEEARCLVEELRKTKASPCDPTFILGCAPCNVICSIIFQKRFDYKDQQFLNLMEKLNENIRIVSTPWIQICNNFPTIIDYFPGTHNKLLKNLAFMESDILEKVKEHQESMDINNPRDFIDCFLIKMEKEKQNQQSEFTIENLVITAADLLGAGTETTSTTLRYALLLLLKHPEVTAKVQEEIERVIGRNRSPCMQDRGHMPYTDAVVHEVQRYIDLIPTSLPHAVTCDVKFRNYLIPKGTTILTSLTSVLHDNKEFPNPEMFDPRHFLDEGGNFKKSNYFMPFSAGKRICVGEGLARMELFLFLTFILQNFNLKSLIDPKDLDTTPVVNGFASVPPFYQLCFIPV

As usually defined, the IC50 is the point on the concentration scale where inhibition reaches its midpoint. As usually defined, the pKa is the negative logarithm of the acid dissociation constant. Higher therefore signals a weaker acid or stronger base. The fraction unbound is the share of the substance not bound to proteins or other matrix. Higher therefore signals much free substance. The half-life is how long it takes for the measured level to halve. The low end stands for rapid decline, the high end for slow decline. The term EC50 denotes the concentration needed to bring the measured effect to its halfway point. In general, inhibition refers to the change of the read-out against control, counted positive when it falls. As for `C[C@@]1(c2cc(NC(=O)c3ccc(C#N)cn3)ccc2F)Cn2c(C#N)cnc2C(N)=N1`, the IC50 is over 10 µM at Cytochrome P450 2C19; over 10 µM at Cytochrome P450 1A2; over 10 µM at Cytochrome P450 2C9; 6.7 µM at Cytochrome P450 3A4 [7]; over 10 µM against Cytochrome P450 2C8; 6.7 µM at Cytochrome P450 3A4 [10]. The IC50 was 270 nM against Cytochrome P450 3A4 [12], over 10 µM in series [13], 1500 nM against Cytochrome P450 3A4 [14] and 3.7 nM at Beta-secretase 1. For the same compound, the Ratio in [1] was 9.3. The same compound came in with a pKa in [2] of 7.2. In [3], this compound yielded a fraction unbound at 5 h of 0.15. This compound also gave a half-life in [4] of 480 min. Also, the Drug metabolism in series [5] was 34%; in series [9], 81%. Besides, the concentration in series [6] worked out at 72 nM. The figures for the fraction unbound at 4.5 h in series [8], in series [15] and in [16] were 0.2, 0.06 and 0.32, respectively. Besides, the EC50 in [11] was found to be 0.03 µg/mL (≈ 0.0724 µM). Further, the inhibition entry in the series with Canis lupus familiaris is “inactive”.

As to `COc1cnc(C(=O)Nc2ccc(F)c([C@]3(C)Cn4c(C#N)cnc4C(N)=N3)c2)cn1`, the values for the IC50 (on Cytochrome P450 3A4 [10]; in [13]; against Beta-secretase 1) were 3.1 µM, over 10 µM and 5.5 nM, respectively.

In turn, `C[C@@]1(c2cc(NC(=O)c3ccc(C#N)cn3)ccc2F)Cn2ccnc2C(N)=N1` gave an inhibition at 3 µM at hERG (KCNH2) of 76%.

For orientation: efflux ratio means the permeability from basolateral to apical divided by that in the opposite direction, in the common usage. Regarding `C[C@@]1(c2cc(NC(=O)c3ccc(OC(F)F)cn3)ccc2F)Cn2nc(C#N)cc2C(N)=N1`, in the series on MDR1, the efflux ratio worked out at 7. For the same compound, the IC50 in series [13] turned out to be 6.6 µM; on Beta-secretase 1, 1.4 nM.

Regarding `C[C@@]1(c2cc(NC(=O)c3ccc(F)cn3)ccc2F)Cn2c(C#N)cnc2C(N)=N1`, the “inhibition (INH)” value on Cytochrome P450 3A4 [7] was “Active”. Besides, the IC50 on Cytochrome P450 3A4 [10] is 4.4 µM; in series [13], over 10 µM; at Beta-secretase 1, 11.5 nM.

Regarding `C[C@@]1(c2cc(NC(=O)c3ccc(Cl)cn3)ccc2F)Cn2c(C#N)cnc2C(N)=N1`, the “inhibition (INH)” value at Cytochrome P450 3A4 [7] is given as “Active”. Moreover, the IC50 on Cytochrome P450 3A4 [10] is 0.9 µM; in series [13] it was over 10 µM; against Beta-secretase 1 it was 2.6 nM.

For `C[C@@]1(c2cc(NC(=O)c3ccc(C#N)cn3)ccc2F)Cn2nc(C#N)cc2C(N)=N1`, the efflux ratio with MDR1 came to 15.2. For the same compound, the results for the IC50 (in [13]; against Beta-secretase 1) were 4.6 µM and 1.7 nM, respectively. On hERG (KCNH2), this compound displayed an inhibition at 3 µM of 71%.

For `C[C@@]1(c2cc(NC(=O)c3cnc(C(F)F)cn3)ccc2F)Cn2nc(C#N)cc2C(N)=N1`, the efflux ratio in the series with MDR1 worked out at 11.5. Also, the IC50 in series [13] was over 10 µM; at Beta-secretase 1, 3.7 nM.

Take `C[C@@]1(c2cc(NC(=O)c3cnc(OCF)cn3)ccc2F)Cn2nc(C#N)cc2C(N)=N1`: the efflux ratio in the series with MDR1 was 8.5. Also, the results for the IC50 (in [13]; against Beta-secretase 1) were over 10 µM and 2.3 nM, respectively.

Take `C[C@@]1(c2cc(NC(=O)c3ccc(F)cn3)ccc2F)Cn2nc(C#N)cc2C(N)=N1`: the efflux ratio in the series with MDR1 turned out to be 7. Further, the IC50 in series [13] is 3.3 µM; against Beta-secretase 1, 2.8 nM.

In the case of `CC(C)(C)OC(=O)Nc1ccc(F)c([C@]2(C)Cn3c(C#N)cnc3C(N)=N2)c1`, on Cytochrome P450 3A4 [7], the “inhibition (INH)” value was “Active”.

With `C[C@@]1(c2cc(NC(=O)c3ccc(C#N)cn3)ccc2F)Cn2cc(C#N)nc2C(N)=N1`, in [1], the Ratio is on record as 16.8. Moreover, the pKa in series [2] is 7. Besides, the values for the Drug metabolism in [5] and in [9] were 3% and 95%, respectively. The IC50 in series [13] was 6.6 µM; on Beta-secretase 1, 13 nM.

For `Cc1nc(C(=O)Nc2ccc(F)c([C@]3(C)Cn4nc(C#N)cc4C(N)=N3)c2)co1`, in the series with MDR1, the efflux ratio was determined as 19.4. Moreover, the IC50 in series [13] was over 10 µM; against Beta-secretase 1, 4.5 nM.

The values are drawn from ChEMBL document CHEMBL5038653, “A Brain-Penetrant and Bioavailable Pyrazolopiperazine BACE1 Inhibitor Elicits Sustained Reduction of Amyloid β In Vivo” (ACS Med Chem Lett, 2022).
